Source: patent US5084449A, “Anti-bacterial compositions comprising a substituted bis-(4-aminophenyl)-sulfone and a dihydro-folic acid reductase” (Dr. Karl Thomae GmbH, priority 1984, dated 1992)

What was measured:
[1] = system: 7,8-dihydropteroic acid-synthetase; assay: inhibiting effect on 7,8-dihydropteroic acid synthesis in cell-free enzyme extract of plasmodia (HPLC); type: biochemical; conditions: concentration giving 50% reduction of 7,8-dihydropteroic acid synthesis; cell-free enzyme extract of Plasmodium berghei; incubation 4 hours; HPLC/UV; read-out: i50
Procedure: M=4'-Amino-2-methyl-4-propylamino-diphenylsulfone were tested for their biological activity in cell-free enzyme extract of Plasmodiumberghei as follows.
Plasmodia are isolated from mouse blood infected with Plasmodium berghei in accordance with the following reference (Heidrich, H. -G. et al., Z. Parasitenkd. 59: 151 (1979). The plasmodia were opened by ultrasound. Proteins with […] acid synthetase activity are concentrated by gel filtration.
The inhibiting effect on 7,8-dihydropteroic acid synthesis of plasmodia is determined as follows:
Under optimum reaction conditions, i.e. Vmax for the reaction which is to be inhibited, the concentration of inhibitor in the new compounds resulting in a 50% reduction in the enzyme synthesis performance is determined. For this purpose the quantity of 7,8-dihydropteroic acid synthesised from the enzyme extract is determined by means of high performance liquid chromatography (HPLC) using a UV detector after an incubation period of 4 hours. It was established that the synthesis of 7,8-dihydropteroic acid proceeded in a linear manner during this period.
The i50 values obtained by this method for a selection of the compounds claimed and those of the comparison preparations bis (4-aminophenyl)sulfone (Dapsone®, DDS) and N^1 -(5,6-dimethoxy-4-pyrimidinyl)-sulfanilamide (Fanasil®) are given in the following Table: […]

[2] = methemoglobin formation after oral administration to cats; type: in vivo; conditions: 200 mg/kg by oral route
Source text: Moreover, in contrast to Dapsone®, the new compounds are well tolerated and in particular show a very low methemoglobin formulation.

Nc1ccc(S(=O)(=O)c2ccc(N)cc2)cc1 [Dapsone ®, bis (4-aminophenyl)sulfone, reference compound]
IC50 [1]: 12.4 µM

COc1ncnc(NS(=O)(=O)c2ccc(N)cc2)c1OC [Fanasil ®, N^1-(5,6-dimethoxy-4-pyrimidinyl)-sulfanilamide, reference compound]
IC50 [1]: 200 µM

CCNc1ccc(S(=O)(=O)c2ccc(N)cc2)c(Cl)c1 [Substance A, 4-Ethylamino-4'-amino-2-chloro-diphenylsulfone]
IC50 [1]: 2.1 µM

CC(C)Nc1ccc(S(=O)(=O)c2ccc(N)cc2)c(Cl)c1 [Substance B, 4'-Amino-2-chloro-4-isopropylamino-diphenylsulfone]
IC50 [1]: 2.67 µM

CCNc1ccc(S(=O)(=O)c2ccc(N)cc2)c(C)c1 [Substance C, 4-Ethylamino-4'-amino-2-methyl-diphenylsulfone]
IC50 [1]: 2.62 µM

CCNc1ccc(S(=O)(=O)c2ccc(N)cc2)c(C(F)(F)F)c1 [Substance D, 4-Ethylamino-4'-amino-2-trifluoromethyl-diphenyl-sulfone]
IC50 [1]: 5.86 µM

Nc1ccc(S(=O)(=O)c2ccc(N)cc2CO)cc1 [Substance E, 4,4'-Diamino-2-hydroxymethyl-diphenylsulfone]
IC50 [1]: 4.9 µM

CC(O)c1cc(N)ccc1S(=O)(=O)c1ccc(N)cc1 (stereo not shown) [Substance F, 4,4'-Diamino-2-(1-hydroxyethyl)-diphenylsulfone]
IC50 [1]: 10.4 µM

CN(C)c1cc(N)ccc1S(=O)(=O)c1ccc(N)cc1 [Substance G, 4,4'-Diamino-2-(N,N-dimethylamino)-diphenylsulfone]
IC50 [1]: 12.9 µM

CNc1cc(N)ccc1S(=O)(=O)c1ccc(N)cc1 [Substance H, 4,4'-Diamino-2-(N-methylamino)-diphenylsulfone]
IC50 [1]: 4.1 µM

N#Cc1cc(N)ccc1S(=O)(=O)c1ccc(N)cc1 [Substance I, 4,4'-Diamino-2-cyano-diphenylsulfone]
IC50 [1]: 12.5 µM | methemoglobin formulation [2]: no methemoglobin formulation is detected

CC(=O)c1cc(N)ccc1S(=O)(=O)c1ccc(N)cc1 [Substance K, 4,4'-Diamino-2-methylcarbonyl-diphenylsulfone]
IC50 [1]: 12.9 µM

CNc1ccc(S(=O)(=O)c2ccc(N)cc2)c(C)c1 [Substance L, 4'-Amino-2-methyl-4-methylamino-diphenylsulfone]
IC50 [1]: 2.94 µM

CCCNc1ccc(S(=O)(=O)c2ccc(N)cc2)c(C)c1 [Substance M, 4'-Amino-2-methyl-4-propylamino-diphenylsulfone]
IC50 [1]: 2.44 µM | methemoglobin formulation [2]: no methemoglobin formulation is detected
